Data: patent US12447160B2, “Topical treatment of wounds with statins and cholesterol for scar reduction” (Northwestern University, priority 2017, dated 2025)

Tests used:
hypertrophic scar = experiment: Rabbit ear hypertrophic scar model, scar elevation index (SEI) by histomorphometry; assay type: in vivo, New Zealand White rabbits
[1] = Solubility of statins in the topical vehicle / microemulsion system; assay type: physicochemical
Text: Transdermal penetration is the critical limitation in topical application. […] The stratum corneum is hydrophobic and a barrier for any topically applied reagent, and so hydrophobic statins should have increased penetration^18. […] Dosing schedules were chosen based upon in vitro dosing necessary to interfere with CTGF expression^11-13,22,23, and extrapolated to animal models based upon our experience with dose response curves for growth factors in our rabbit ear model^24.

CTGF mRNA = experiment: Quantification of CTGF mRNA expression in dermal scar tissue (qPCR); assay type: in vivo, New Zealand White rabbits; conditions: high-dose (10%) simvastatin topical, mean±SEM, p<0.01
Protocol: (§1) Total RNA was extracted from dermal scar tissue of high-dose simvastatin topical treatment and control scars using TRI reagent (Sigma-Aldrich, St. Louis, MO), and contaminated DNA was removed with Turbo DNA-free kit (Ambion, Austin, TX). The cDNA was synthesized from one μg of total RNA by superscript II reverse transcriptase (Invitrogen, Grand Island, NY) with 100 ng of random primers in 20 μl of volume. Synthesized cDNA was quantified in a sequence detection system (ABI StepOnePlus; Applied Biosystems, Foster City, CA) using SYBR green and specific primers of CTGF and collagen 1A1, and 18 S rRNA was set as endogenous control. The sequence of primers is as followed: CTGF (5′-CTTCTGTCGGCTGGAGAAAC-3′ (SEQ ID NO:1) & 5′-TTAGCCCGGTACGTCTTCAC-3′ (SEQ ID NO:2)); Collagen 1A1: (5′-TAAGAGCTCCAAGGCCAAGA-3′(SEQ ID NO:3) & 5′-TGTTCTGAGAGGCGTGATTG-3′ (SEQ ID NO:4)); Glyceraldehyde 3-phosphate dehydrogenase (5′-AGGTCATCCACGACCACTTC-3′ (SEQ ID NO:5) & 5′-GTGAGTTTCCCGTTCAGCTC-3′ (SEQ ID NO:6)).
(§2) For statistical analysis of histological and molecular analysis results, Student's paired t test was applied to see if there is a difference between treatment and control group, p<0.05 was used as significant. All values were represented as mean±standard error.

Collagen 1A1 mRNA = experiment: Quantification of Collagen 1A1 mRNA expression in dermal scar tissue (qPCR); assay type: in vivo, New Zealand White rabbits; conditions: high-dose (10%) simvastatin topical, mean±SEM, p<0.01
Protocol: as §1, §2

For `CC(C)CCC[C@@H](C)[C@H]1CC[C@H]2[C@@H]3CC=C4C[C@@H](O)CC[C@]4(C)[C@H]3CC[C@]12C` [cholesterol], the “Effect of cholesterol on reducing scarring” value (hypertrophic scar; topical cholesterol in vehicle) was “mild, not statistically effect”.
In the case of `CC[C@H](C)C(=O)O[C@H]1C[C@@H](C)C=C2C=C[C@H](C)[C@H](CC[C@@H]3C[C@@H](O)CC(=O)O3)[C@H]21` [lovastatin], the “Solubility in the vehicle tested” value [1] was “limited solubility”.
With `CC[C@H](C)C(=O)O[C@H]1C[C@H](O)C=C2C=C[C@H](C)[C@H](CC[C@@H](O)C[C@@H](O)CC(=O)O)[C@H]21` [pravastatin] the “Scar elevation index (SEI)” value (hypertrophic scar; intradermal 100 μl 10 μM pravastatin in PBS per wound at POD 15, 18, 21, harvest POD 28, mean±standard error, saline control 1.71±0.08, p=0.0009) was 1.55±0.07.
With `CCC(C)(C)C(=O)O[C@H]1C[C@@H](C)C=C2C=C[C@H](C)[C@H](CC[C@@H]3C[C@@H](O)CC(=O)O3)[C@H]21` [simvastatin] the “mRNA expression of CTGF compared to vehicle control” value (CTGF mRNA) was 53.8±8.0% and the “mRNA expression of Collagen 1A1 compared to vehicle control” value (Collagen 1A1 mRNA) was 48.5±14%.
